Laboratory results as given in patent US8968702B2, “Inhibition of HIF-1 activation for anti-tumor and anti-inflammatory responses” (Duke University, priority 2006, dated 2015).
Read-outs that look alike come from different tables or passages of the source. Where a SMILES comes first, the peptide text is derived from it. The star is where a group is joined. Cbz = O=C(OCc1ccccc1)*

Columns and labels:
HIF-1α [1] = assay type: cell-based, murine
[2] = tested on: constitutively expressed luciferase; test: CMV-luc control reporter in irradiated 4T1 tumors in nude mice; assay type: in vivo; conditions: 4T1-luc tumors, 6 Gy, with or without L-NAME
Text: Plasmids and cloning procedures. The HIF-1α bioluminescence reporter (ODD-luc) construct was created by fusing PCR product of ODD domain of HIF-1α (GENBANK® Accession No. U59496) to the 5′ end of firefly luciferase reporter gene. Along with this construct, a luciferase expression vector in which luciferase gene was driven by the CMV promoter was used as a control. […] ODD fragments with or without the mutation were cloned into pCMV-3Tag-4B Epitope Tagging Mammalian Expression vector (Stratagene, La Jolla, Calif., United States of America). The full length mouse VHL gene (GENBANK® Accession No. S76748) was cloned form mouse tissue and tagged with HA tag by PCR. All constructs were sequence-verified.
Imaging luciferase activity.
(§1) Animal experiments. […] Drinking water was renewed daily until animal sacrifice.

[3] = tested on: 4T1 (murine mammary adenocarcinoma); test: Tumor growth delay with radiotherapy, 4T1 tumors; assay type: in vivo; conditions: syngeneic mice, 3 fractions of 6 Gy every other day, L-NAME in drinking water
Text: as §1
(§2) Statistics. Student's t test, one-way and two-way ANOVA were used where indicated. In growth delay experiments, the numbers of days for tumors to reach 5× their initial volume were used for comparing different treatment groups.

B16F10 (murine melanoma) = test: Tumor growth delay with radiotherapy, B16F10 tumors; assay type: in vivo; conditions: syngeneic C57BL/6 mice, 3 fractions of 6 Gy every other day, L-NAME in drinking water
Text: as §1, §2

tumor vasculature = test: CD31 vessel staining / vascular density in tumors; assay type: in vivo, mice; conditions: 4T1 and B16F10 tumors excised on day 10
Protocol: Vessel staining was performed on tumor cryoslices by using the VECTASTAIN® ABC and the NOVARED™ kits from Vector Laboratories (Burlingame, Calif., United States of America), according to the manufacturer's protocol. The primary anti-CD31 antibody (Santa Cruz Biotechnology, Santa Cruz, Calif.) was labeled with a secondary biotinylated anti-rabbit antibody (Jackson ImmunoResearch Labs, Inc.). Slices were counterstained using Harris' hematoxilin. Vascular density was determined by counting CD31-positive structures in 5 random fields per tumor.

HIF-1α [4] = test: Radiation-induced ODD-luc in 4T1 tumors in macrophage-depleted nude mice; assay type: in vivo; conditions: 4T1-ODD-luc tumors, carrageenan 2 mg i.p. repeated, 6 Gy
Protocol: Imaging luciferase activity. Luciferase expression/activity was detected and quantified as relative light units (RLUs) by using the Xenogen IVIS™ imaging system and associated LIVING IMAGE® software (Xenogen, Alameda, Calif., United States of America). […] For in vivo experiments, treated tumor-bearing mice received an i.p. injection of luciferin (150 mg/kg) during isofluorane anesthesia. Repeated images of luciferase expression/activity were acquired following manufacturer's specified procedures.
Animal experiments. Female NIH Swiss nude mice, C57BL/6 mice were purchased from the National Cancer Institute (NCI; Fredrick, Md., United States of America). Mice with a genetic disruption of the inducible nitric acid synthase gene (C57BL/6 iNOS^−/−) were obtained from the Jackson Laboratory (Bar Harbor, Me., United States of America). Female BALB/c mice were obtained from Charles River Laboratories (Raleigh, N.C., United States of America). Animals were maintained and cared for in accordance with the Duke University Institutional Animal Care and Use Committee guidelines. For tumor implantation, 4T1 tumors were grown in nude mice or in syngeneic BALB/c mice, and B16F10 melanoma in syngeneic C57BL/6 or iNOS^−/− mice. […]

[Cl-].[Cl-].[Co+2] [CoCl2]
luminescence from ODD-luc reporter gene expression (HIF-1α [1]): rose significantly

COC(=O)[C@@H](N)CCCNC(=N)N[N+](=O)[O-] [L-NAME, Nω-nitro-L-arginine methyl ester]
activity of constitutively expressed luciferase (CMV-luc control) [2]: did not influence the activity of constitutively expressed luciferase activity | tumor growth delay, L-NAME with radiotherapy [3]: significantly enhanced the therapeutic efficacy of radiotherapy | tumor growth delay, L-NAME with radiotherapy (B16F10 (murine melanoma)): significantly enhanced the therapeutic efficacy of radiotherapy | tumor vasculature (CD31+ vascular density), L-NAME with radiotherapy (tumor vasculature): significantly reduced tumor vasculature

CC(C)C[C@@H](C=O)NC(=O)[C@H](CC(C)C)NC(=O)[C@H](CC(C)C)NC(=O)OCc1ccccc1 [MG132] (Cbz-Leu-Leu-Leu-aldehyde)
luminescence from ODD-luc reporter gene expression (HIF-1α [1]; CoCl2 240 μM for 12 hrs, MG132 10 μM for 12 hrs, versus background): rose significantly

CC1(C)N([O])C(c2ccc(C(=O)[O-])cc2)=[N+]([O-])C1(C)C.[K+] [carboxy-PTIO, potassium 2-(4-carboxyphenyl)-4,4,5,5-tetramethylimidazoline-1-oxyl-3-oxide]
suppression of GSNO-induced HIF-1α activation (ODD-luc) (HIF-1α [1]): effectively suppressed HIF-1α activation by GSNO

carrageenan
radiation-induced ODD-luc activation after macrophage depletion (HIF-1α [4]): significant reduction in radiation-induced ODD-luc activation
